In patent US9877681B2, ““Micro-patch” for assessment of the local microvasculature and microcirculatory vasoreactivity” (priority 2007, dated 2018):
Entries after “also recorded” stand apart in the source; their conditions may differ. Read-outs that look alike come from different tables or passages of the source.

Assays:
[1] = tested on: local microvasculature (forehead); assay: Study B: acetylcholine and nitroglycerin micro-patches, laser Doppler flowmetry of forehead perfusion in healthy volunteers; format: in vivo, human; details: for increase in laser Doppler flowmetry readings, mean (95% CI): 10 healthy volunteers, forehead, plateau vs baseline; for time to marked rise in laser Doppler flowmetry voltage (flux) after drug application: each healthy volunteer; for blood flow at the micro-patch site, representative tracings: one healthy subject, FIG. 19
From the text: (§1) Mixing was accomplished to achieve a final product that was smooth and free of abrasive particles. Based on trial and error testing, it was elected to pursue testing with acetylcholine chloride powder dissolved in water for placement on an adherent surface (e.g., clear tape). […] This dose is proportional to doses of MIOCHOL-E,™ (that is, a clinically available acetylcholine preparation that is used to produce papillary constriction (miosis) during cataract surgery) that had been tested in preliminary trials. However, the agent used for micro-patches can be superconcentrated compared to the solution used for intraocular injection—made possible because of the small delivery area.
The dry side of the acetylcholine “micro-patch” was adhered to the end of a laser Doppler flowmetry probe (a PF 5010 with Probe Model 407, Perimed, Sweden in accordance with a preferred embodiment) (see FIGS. 1 and 2). A sham drug micro-patch was made in the same way with 0.02-mL of HPLC-grade water instead of acetylcholine solution. Before micro-patch application, a DOUBLE-STICK DISC™ (3M Health Care, Neuss, Germany) (that is, the double-sided adhesive ring 6 discussed above) with an overall diameter of 38.1-mm and a central hole (or opening) diameter of 8.7-mm is placed at the site to be tested. The double-sided adhesive ring 6 serves as an adherent base onto which a monitor such as a laser Doppler flowmetry probe 1 is placed as well as to define the area (59.4-mm^2) for drug application. In addition to providing for targeted adherence, when placed between the micro-patch 2 and the study surface (as shown in FIG. 1) this further limits the area of drug delivery by providing a barrier to drug delivery from the outer regions of the micro-patch 2. As detailed below, this delivered as much as 10% of that used to constrict the pupil during cataract surgery Dose-response curve can be assessed with serial dilutions. […] Laser Doppler flowmetry is an exemplary form of potential monitoring (used in each of the Table 2 studies).
The creation of a nitroglycerin micro-patch so as to enable concurrent monitoring of an endothelium-dependent transdermal preparation (acetylcholine, described above) and an endothelium-independent vasodilator (nitroglycerin) is simpler than the creation of the acetylcholine micro-patch. […] The present invention provides not only for the application of the disclosed method for monitoring the local circulation but the tailoring of the micro-patch to ensure effective delivery throughout the monitoring site while avoiding delivery of excess drug that might predispose to remote and/or systemic effects. For a single laser Doppler flowmetry probe, the nitroglycerin micro-patch may be obtained by using a standard hole-punch to cut a 6-mm diameter (28.3-mm^2 area) section of a full size 0.6 mg/hr MINITRAN™ nitroglycerin patch (3M, Minnesota). Alternatively, for applications where one wishes to move the laser Doppler flowmetry probe so as to encompass a larger area (as with the inventive assembly in FIG. 16), a small rectangle may be appropriate. Such patches are designed for homogeneous delivery of drug at a rate of 0.03-mg/hour per 100-mm^2 area of patch, such that the section used in the inventive micro-patch delivered at a rate of approximately 0.008-mg/hr. Although not currently available, lesser or higher concentrations of nitroglycerin may be used for micro-patches, pending dose response studies to confirm local efficacy and lack of systemic effects. The nitroglycerin micro-patch then is placed onto a double-sided adhesive ring for adherence to a monitoring probe (see FIGS. 1 and 2) or it may be placed on the tissue under an elevated support assembly 131 or scanner (described below).
Methods: For each session, subjects lay on a bed in a semi-recumbent position in a temperature-controlled room (24+1° C.). A three-lead electrocardiogram and a noninvasive brachial artery blood pressure cuff were applied. […]

[2] = tested on: local microvasculature (forehead); assay: Study B: acetylcholine and nitroglycerin micro-patches, laser Doppler flowmetry of forehead perfusion in patients with diabetes; format: in vivo, human; details: 10 diabetic patients with retinopathy
Description: Methods: For each session, subjects lay on a bed in a semi-recumbent position in a temperature-controlled room (24+1° C.). A three-lead electrocardiogram and a noninvasive brachial artery blood pressure cuff were applied. The three laser Doppler flowmetry probes with customized acetylcholine, nitroglycerin, and placebo micro-patches (as described above) attached were adhered onto the three double-stick discs on the forehead so as to enable undisturbed monitoring and drug delivery. Laser Doppler flowmetry monitoring was performed continuously at each site until a vasodilatory plateau was maintained for ≧3 minutes or for a maximum of 20 minutes. Data were collected at a rate of 1000 Hz using Chart for Windows (ADlnstruments, Colorado Springs, Colo.).
The local microvascular effects of transdermal acetylcholine and nitroglycerin were first tested in 10 healthy volunteers (7 males, 3 females; mean age 36.1, range 19 to 56 years) without vascular disease or diabetes. […]
An investigator blinded to the status of the subject and to the nature of the study site assessed the laser Doppler tracing at each study site. […] The effects of the single dose of acetylcholine was compared to the single dose of nitroglycerin in the healthy volunteers, with the differences analyzed using Wilcoxon Signed Rank Test (WSRT). […]

forehead blood flow = assay: Non-iontophoretic transdermal acetylcholine at the forehead, laser Doppler flowmetry (Table 2); format: in vivo, human; details: Silverman, <0.25 ml of 1%, inc
From the text: as §1
The dry side of the acetylcholine “micro-patch” was adhered to the end of a laser Doppler flowmetry probe (a PF 5010 with Probe Model 407, Perimed, Sweden in accordance with a preferred embodiment) (see FIGS. 1 and 2). A sham drug micro-patch was made in the same way with 0.02-mL of HPLC-grade water instead of acetylcholine solution. […] As detailed below, this delivered as much as 10% of that used to constrict the pupil during cataract surgery Dose-response curve can be assessed with serial dilutions. […]

forearm blood flow = details: Iontophoresis, inc, cited from earlier work
[3] = tested on: local microvasculature (forehead); assay: Laser Doppler scanner imaging of micro-patch sites on the forehead; format: in vivo, human; details: several minutes after application, FIGS. 22-24
From the text: Another alternative is provided by the laser Doppler scanning imager. […] [Wardell K, Braverman I M, Silverman D G, Nilsson G E: Spatial heterogeneity in normal skin perfusion recorded with laser Doppler imaging and flowmetry. Microvascular Research 48(1):26-38, 1994 July]. […] This is accomplished by rapidly scanning an area by a shifting light that is sequentially directed to successive study sites by a mirror. […] This is because the laser Doppler scanner typically monitors a given site for fractions of a second. […] Compromises include rapidly scanning all sites at repeat intervals for a long enough period to overcome the effects of pulsations and oscillations. However, a relatively long interval is required to ensure this. Thus, the laser Doppler scanner mitigates spatial variability at the expense of temporal variability (e.g., beat-to-pulsations with each heart beat as well as oscillations in activity as a component of autonomic regulation of blood vessels).

[4] = tested on: local microvasculature (finger); assay: Laser Doppler scanner imaging of micro-patch sites on the fingers; format: in vivo, human; details: FIG. 25
From the text: Nitroglycerin induces vasodilation independent of the parasympathetic pathways. […] Anesthesiology 2004;101:A246] and phenylephrine [Silverman D G, Stout R G: Distinction between atropine-sensitive control of microvascular and cardiac oscillatory activity. Microvasc Res 63:196-208, 2002].

[5] = tested on: local microvasculature (finger); assay: Micro-patch applied to the finger, laser Doppler flowmetry; format: in vivo, human
From the text: The difference likewise is seen in results generated by a laser Doppler scanner (discussed below).

[6] = tested on: local microvasculature (forehead)
Description: Prior to the customization of nitroglycerin according to the present invention, nicotine was customized in accordance with the purposes of present invention. This entailed customization of a commercially available clear NICODERM patch, nicotine delivery patch, (with 0.83 mg of nicotine/cm^2). Again, lesser or higher concentrations may be used for a micro-patch; these are not currently available, since currently available nicotine patches delivery a fixed dose/cm^2 patch such that a higher systemic dose is obtained by using a larger patch.
The preliminary investigations with nicotine micro-patches (0.83 mg/cm^2) entailed customizing a section of the micro-patch so that it adhered to an area of skin that was sufficient to deliver drug to the area under a laser Doppler flowmetry probe and that enabled attachment of the laser Doppler flowmetry probe to an upper surface of the micro-patch.

local microvasculature = assay: Fast Fourier transformation (FFT) of signals at micro-patch sites; format: in vivo, human
From the text: This leads to present disclosure of a means to overcome the potential confusion: I herein introduce the application of spectral domain analysis [fast Fourier transformation (FFT), alluded to above, and variations thereof such as joint time frequency)] to characterize PTT values. This enables comparative assessment of: FFT of PTTPPG (primarily influenced by arrival of the stroke volume at underlying artery), FFT of PTTlaserDoppler (arrival of stroke volume at microvasculature), and FFT of PTTPPG-LaserDoppler.
Once combined monitoring becomes available at a given site, and then concurrent FFT analysis of PTT of artery, acv and vein will enable one to delineate the sites of microvascular and neuro-microvascular activity. In addition to micro-patch induced changes in readings between sites of measurement (e.g. PTT), we can also measure changes at sites of measurement (e.g., mean, heights). Again, confounders such as different units and differing criteria for onset may be avoided with FFT.

[7] = tested on: local microvasculature (forehead); assay: Study D: impact of fatty meal on responses to nitroglycerin and acetylcholine micro-patches; format: in vivo, human; details: 10 minutes after patch application
Description: Two hours later, subjects underwent application of acetylcholine and nitroglycerin micro-patches. As described above, the former was prepared by mixing 100 mg of solid acetylcholine with […] of sterile water. From this solution (concentration of 14.3 mg/ml) we used an aliquot of just under 0.14 ml (less than 10% of the standard 20 mg dose injected into the eye during cataract surgery). The latter consisted of a 1.4 cm×1.4 cm translucent square (cut from a full-sized nitroglycerin patch) to delivery 0.008 mg/hr of nitroglycerin to the study site. Before each patch application, seven sites of the forehead were monitored with a commercially available integrating laser Doppler flowmetry probe that averages the output from several closely packed light-transmitting channels (to partially overcome spatial heterogeneity). At 10 minutes after patch application, readings were repeated. Changes were analyzed using paired t-test.

[8] = tested on: local microvasculature (forehead); details: scopolamine applied with/before nicotine, FIG. 18

Compound	increase in laser Doppler flowmetry readings, mean (95% CI) [1]	time to marked rise in laser Doppler flowmetry voltage (flux) after drug application [1]	blood flow at the micro-patch site, representative tracings [1]	mean percent increase in blood flow (95% CI) [2]	relative blood flow at the micro-patch site (laser Doppler scanner) [3]	flow at the micro-patch site (laser Doppler scanner) [4]	change in flow when applied to the finger [5]	also measured
CC(=O)OCC[N+](C)(C)C.[Cl-] [acetylcholine, acetylcholine chloride]	406% (245%-566%)	two	Prompt increases in blood flow	156% (91%-221%)	increase in relative blood flow; also recorded: increased blood flow			change in systemic blood pressure and heart rate ([1]; human, in vivo): lack of significant change; Change in Blood Flow (forehead blood flow): 50-250%; Change in Blood Flow (forearm blood flow; Morris, approx 0.25 ml of 1%): 50-100%; Change in Blood Flow (forearm blood flow; Noon, approx 0.25 ml of 2%): 1000%
CN1CCCC1c1cccnc1 (stereo not drawn) [nicotine]					increase in relative blood flow; also recorded: caused vasodilation; also recorded: greatest flow	lack of increased flow	no significant change	increase in flow at the active site ([6]; button-sized translucent micro-patch, forehead of seven healthy subjects): 388.4%; response at a remote site or in systemic indices (heart rate, blood pressure, flow at other sites) ([6]; drug delivery limited to the micro-patch): no response; flow at the nicotine site relative to baseline (laser Doppler flowmetry) ([6]; forehead, between 5 and 15 minutes after application, FIG. 17): approximately 300 % of baseline; increase in local blood flow ([6]; transdermal application at the forehead, within 30 min): 2-5 fold; local microvasculature's response to the micro-patch ([6]; transdermal micro-patch): vasodilation; change in the 0.03-0.12 Hz frequency range by FFT (local microvasculature; 0.03-0.12 Hz): marked increase; oscillatory activity at micro-patch site by FFT (local microvasculature; in vivo): marked oscillatory activity
O=[N+]([O-])OCC(CO[N+](=O)[O-])O[N+](=O)[O-] [nitroglycerin]	365% (179%-550%)	two	Prompt increases in blood flow	116% (79%-153%)	increase in relative blood flow; also recorded: caused vasodilation; also recorded: Increased flow	induced vasodilation; also recorded: flow increased	significant change	change in systemic blood pressure and heart rate ([1]; healthy volunteers): lack of significant change; nitroglycerin/acetylcholine ratio of induced increase ([7]; two hours after fat-laden meal): 1.31; nitroglycerin/acetylcholine ratio of induced increase ([7]; two hours after nonfat meal): 0.94
CN1[C@@H]2C[C@@H](OC(=O)[C@H](CO)c3ccccc3)C[C@H]1[C@@H]1O[C@@H]12 [scopolamine]								effect of scopolamine on the nicotine-induced increase in perfusion [8]: blunted; also recorded: inhibition
